One block for each molecule: values may come before it.
Key:
SU-DHL-5 = assay: Apoptosis of cell lines: SU-DHL-5; type: cell-based; conditions: SU-DHL-5, 21 hrs, 500 nM
Description: (§1) The following cell lines representing various leukaemia's and lymphoma's, as classified by ATCC (www.atcc.org/), were used: Jurkat—acute T-cell leukaemia; CCRF-SB—B-cell acute lymphoblastic leukaemia; MC116—B-cell undifferentiated lymphoma; Raji, Ramos—Burkitt lymphoma (rare form of B-cell non-Hodgkin lymphoma); SU-DHL-4, SU-DHL-5, SU-DHL-8, NU-DUL-1, OCI-Ly3—Diffuse large B-cell lymphoma; THP-1—acute monocytic leukaemia; and Dakiki—B cell nasopharyngeal carcinoma.
(§2) Prior to an assay being performed, 1 vial of each of the above cell lines was thawed in a 37° C. water bath and then added to 20 ml complete media (RPMI 1640+2 mM GlutaMAX+1% Pen/Strep, all previous supplied by Invitrogen, +10% Fetal Bovine Serum (FBS), Sigma Aldrich). Cells were spun (500 g, 5 min, at RT) and re-suspended in 20 ml complete media to wash and spun again. Cells were resuspended in 10 ml complete media and then counted using a ChemoMetec NucleoCounter NC-3000. 6×10^6 cells of each cell line were spun (500 g, 5 min, at RT) and re-suspended in 4.8 ml complete media. 1×10^5 cells in 80 μl were then added to each well of a Corning Costar 96-well, cell culture treated, U-shaped-bottom microplate (cat no. 07-200-95). The plate was rested in a 37° C., 5% CO2 incubator for 2 hrs
(§3) Stocks of 4133-6294 BYbe and NegCtrl BYbe at 2500 nM in complete media were prepared. In a Greiner 96-well non-binding microplate, both reagents were serially diluted in complete media 1 in 5, seven times to produce to form an 8-point dose curve. […] (final well concentrations 500-0.0064 nM) was added to the cells. Each concentration was produced in triplicate. Camptothecin (cat no. C9911-100MG, Sigma Aldrich) and Staurosporine (cat no. 56942-200UL, Sigma Aldrich) were added as positive controls of apoptosis. Both were diluted in complete media and added to the well to produce a final concentration of 5 μM. Additional positive controls included anti-thymocyte globulin (ATG, indicated by FDA for use in conditioning regimens), Rituximab (anti-CD20, indicated by FDA for Non-Hodgkin Lymphoma and Chronic Lymphocytic Leukaemia) and Campath (anti-CD52, indicated by FDA for B-cell Chronic Lymphocytic Leukaemia). Anti-thymocyte globulin, Rituximab and Campath were added to the wells to produce final concentrations of 200 μg/ml, 500 nM and 200 μg/ml, respectively. […]
(§4) Following the incubation, the plates were spun at 500 g, 5 min, RT, the buffer was aspirated with a BioTek ELx405 microplate washer, and the cells were re-suspended in FACS buffer (PBS+1% bovine serum albumin (BSA)+0.1% NaN3+2 mM EDTA, Sigma Aldrich) to wash and then re-spun and buffer was aspirated to leave the cells in 20 μl residual media. […] Cells were analysed using the Bio-Rad ZE5 Cell Analyzer. […]

Jurkat = assay: Apoptosis of cell lines: Jurkat; type: cell-based; conditions: 21 hrs, 500 nM
Description: as §1, §2, §3, §4

CCRF-SB = assay: Apoptosis of cell lines: CCRF-SB; type: cell-based; conditions: 21 hrs, 500 nM
Description: as §1, §2, §3, §4

SU-DHL-4 = assay: Apoptosis of cell lines: SU-DHL-4; type: cell-based; conditions: SU-DHL-4, 21 hrs, 500 nM
Description: as §1, §2, §3, §4

NU-DUL-1 = assay: Apoptosis of cell lines: NU-DUL-1; type: cell-based; conditions: NU-DUL-1, 21 hrs, 500 nM
Description: as §1, §2, §3, §4

Ramos = assay: Apoptosis of cell lines: Ramos; type: cell-based; conditions: 21 hrs, 500 nM
Description: as §1, §2, §3, §4

OCI-Ly3 = assay: Apoptosis of cell lines: OCI-Ly3; type: cell-based; conditions: OCI-Ly3, 21 hrs, 500 nM
Description: as §1, §2, §3, §4

Raji = assay: Apoptosis of cell lines: Raji; type: cell-based; conditions: 21 hrs, 500 nM
Description: as §1, §2, §3, §4

THP-1 = assay: Apoptosis of cell lines: THP-1; type: cell-based; conditions: THP-1, 21 hrs, 500 nM
Description: as §1, §2, §3, §4

SU-DHL-8 = assay: Apoptosis of cell lines: SU-DHL-8; type: cell-based; conditions: SU-DHL-8, 21 hrs, 500 nM
Description: as §1, §2, §3, §4

Dakiki = assay: Apoptosis of cell lines: Dakiki; type: cell-based; conditions: 21 hrs, 500 nM
Description: as §1, §2, §3, §4

MC116 = assay: Apoptosis of cell lines: MC116; type: cell-based; conditions: MC116, 21 hrs, 500 nM
Description: as §1, §2, §3, §4

[1] = target: T1, CD45 domains 1-4 of the extracellular domain (UniProtKB P08575, residues 225-573) with C-terminal TEV cleavage site and 10-His tag (human); assay: SPR, Biacore 3000, 25 C; Fab captured by anti-mouse F(ab)2, CD45 D1-D4 titrated 50 nM to 0.05 nM
[2] = target: T1, CD45 domains 1-4 of the extracellular domain; assay: SPR, Biacore 3000, 25 C; Fab captured by anti-rabbit F(ab)2, CD45 D1-D4 titrated 50 nM to 0.05 nM

Molecule: Rituximab: anti-CD20, indicated by FDA for Non-Hodgkin Lymphoma and Chronic Lymphocytic Leukaemia; positive control [reference compound]
Rituximab mean (%) cell reduction (SU-DHL-5): 61.26% | Rituximab mean (%) cell reduction (Jurkat): 6.52% | Rituximab mean (%) cell reduction (CCRF-SB): 59.87% | Rituximab mean (%) cell reduction (SU-DHL-4): 79.76% | Rituximab mean (%) cell reduction (NU-DUL-1): 87.04% | Rituximab mean (%) cell reduction (Ramos): 91.05% | Rituximab mean (%) cell reduction (OCI-Ly3): 19.05% | Rituximab mean (%) cell reduction (Raji): 87.89% | Rituximab mean (%) cell reduction (THP-1): 23.12% | Rituximab mean (%) cell reduction (SU-DHL-8): 15.25% | Rituximab mean (%) cell reduction (Dakiki): 58.55% | Rituximab mean (%) cell reduction (MC116): 98.13%

Kd [1]: 0.085 nM | koff [1]: 0.00022 s⁻¹ | kon [1]: 2.6e+06 M⁻¹ s⁻¹
B1: 6294 mouse Fab (Fab, V domains shown)
VH: EVQLVESGAELARPGASVKMSCKASGYTFTSYTMHWVKQRPGQGLEWIGYINPSSGYTEYNQKFKDKTTLTADKSSSTAYLQLSSLTSEDSAVYYCARVGDGFYPSWLAYWGQGTLVTVSS
VL: DIQMTQSPKFLLVSAGDRVTITCKASQSVRNDVAWYQQKPGQSPKLLIFYASKRYTGVPDRFTGSGYGTDFTFTISTVQAEDLAVYFCQQDYSSPTTFGGGTKLEIK

Kd [2]: 61 nM | koff [2]: 0.035 s⁻¹ | kon [2]: 570000 M⁻¹ s⁻¹
B2: 4133 rabbit Fab (Fab, V domains shown)
VH: QEQLVESGGGLVQPEGSLTLTCTASGFSFSGNYYMCWVRQAPGKGLEWIGCLYTGSSGSTYYASWAKGRFTISKTSSTTVTLQMTSLTAADTATYFCARDLGYEIDGYGGLWGQGTLVTVSS
VL: AQVLTQTPSPVSAVVGGTVSISCQASQSVYNNNNLSWYQQKPGQPPKLLIYDASKLASGVPSRFKGSGSGTQFTLTISGVQCDDAATYYCLGGYYSSGWYFAFGGGTKVVVKR
